Test results reported in patent US20070259927A1, “Remedy for Diabetes” (Takeda Pharmaceutical Company Limited, priority 2004, published 2007).

Assays:
Format in all cases: in vivo
[1] = test system: db/db mouse; assay: Experimental Example 2: db/db mouse, powder diet for 5 weeks, pioglitazone and vildagliptin alone or combined; settings: db/db mice, in powder diet 5 weeks, mean (n=8)±standard deviation; for pancreatic insulin content: pancreas removed day 37
Text: First of all, db/db mice (32 mice) were divided into 4 groups of F to I (8 mice in each group), and
a powder diet (trade name: CE-2, Clea Japan, Inc., hereinafter the same) was given to group F (control group), a powder diet containing pioglitazone hydrochloride (0.01 (w/w) % as pioglitazone) was given to group G,
a powder diet containing pioglitazone hydrochloride
In addition, a powder diet was given to db/+m mice for 5 consecutive weeks, and the mice were used as group J (normal group).
(§1) In the above-mentioned groups F to I, blood samples were collected from mice on day 35 from the start of the powder diet administration, and plasma glucose level and plasma insulin level were measured. On day 37 from the start of the powder diet administration, the pancreas was removed from the mice, and the pancreatic insulin content was measured.
The plasma glucose level, plasma insulin level, plasma insulin/plasma glucose value, and the pancreatic insulin content were measured in the same manner as in Experimental Example 1.
The results are shown in [Table 5] to [Table 8]. The values in the tables show mean (n=8)±standard deviation.

[2] = test system: db/db mouse; assay: Experimental Example 1: db/db mouse, powder diet for 3 weeks, pioglitazone and compound A alone or combined; settings: db/db mice, in powder diet 3 weeks, mean (n=8)±standard deviation; for plasma insulin level / plasma glucose level / plasma insulin/plasma glucose value: day 21; for plasma insulin level / pancreatic insulin content: pioglitazone 0.01(w/w)%, compound A 0.03(w/w)% (½ fumarate); for plasma glucose level: pioglitazone hydrochloride 0.01(w/w)% as pioglitazone, ½ fumarate of compound A 0.03(w/w)% as compound A; for plasma insulin/plasma glucose value: plasma insulin level divided by plasma glucose level; for pancreatic insulin content: pancreas removed day 23
Text: First of all, db/db mice (32 mice) were divided into 4 groups of A to D (8 mice in each group), and a powder diet (trade name: CE-2, Clea Japan, Inc., hereinafter the same) was given to group A (control group), a powder diet containing pioglitazone hydrochloride (0.01(w/w) % as pioglitazone) was given to group B, a powder diet containing ½ fumarate of compound A (0.03(w/w) % as compound A) was given to group C, and a powder diet containing pioglitazone hydrochloride (0.01(w/w) % as pioglitazone) and ½ fumarate of compound A (0.03(w/w) % as compound A) was given to group D, for 3 consecutive weeks.
In addition, a powder diet was given to db/+m mice for 3 consecutive weeks, and the mice were used as group E (normal group).
as §1, with “A” for “F”, “E,” for “I,”, “21” for “35”, “23” for “37”
The plasma glucose level was measured by an enzyme method using L type Wako Glu2 (trade name, Wako Pure Chemical Industries, Ltd.).
In addition, the plasma insulin level was measured by a radioimmunoassay (trade name, ShionoRIA insulin), and the plasma insulin level was divided by the plasma glucose level to determine the plasma insulin/plasma glucose value.
The pancreatic insulin content was measured as follows.
First, the mouse pancreas was disrupted in its 10 times weight of 75% ethanol (containing 0.15 M hydrochloric acid). The obtained disrupted solution was left standing overnight under the shading conditions at 4·^□C, and centrifuged at 15000 rpm for 5 min. The obtained supernatant was appropriately diluted with PBS(−) (phosphate-buffered saline) containing 0.1% BSA (bovine serum albumin). The insulin content of the diluted solution was measured in the same manner as in the above-mentioned plasma insulin level, and the insulin content per pancreatic tissue weight was calculated.
The results are shown in [Table 1] to [Table 4]. The values in the tables show mean (n=8)±standard deviation.

[3] = test system: db/db mouse; assay: Experimental Example 3: db/db mouse, powder diet for 4 weeks, pioglitazone and sitagliptin alone or combined; settings: db/db mice, in powder diet 4 weeks, mean (n=8)±standard deviation; for plasma insulin level / plasma glucose level / plasma insulin/plasma glucose value: day 28; for plasma insulin level / pancreatic insulin content: pioglitazone 0.01(w/w)%, sitagliptin 0.03(w/w)%; for plasma glucose level: pioglitazone hydrochloride 0.01(w/w)% as pioglitazone, sitagliptin hydrochloride 0.03(w/w)% as sitagliptin; for plasma insulin/plasma glucose value: plasma insulin level divided by plasma glucose level; for pancreatic insulin content: pancreas removed day 29
Text: First of all, db/db mice (32 mice) were divided into 4 groups of […] mice in each group), and a powder diet (trade name: CE-2, Clea Japan, Inc., hereinafter the same) was given to group K (control group), a powder diet containing pioglitazone hydrochloride (0.01(w/w) % as pioglitazone) was given to group L, a powder diet containing sitagliptin hydrochloride (0.03(w/w) % as sitagliptin) was given to group M, and a powder diet containing pioglitazone hydrochloride (0.01(w/w) % as pioglitazone) and sitagliptin hydrochloride (0.03(w/w) % as sitagliptin) was given to group N, for 4 consecutive weeks. In addition, a powder diet was given to db/+m mice for 4 consecutive weeks, and the mice were used as group 0 (normal group). In the above-mentioned groups K to N, blood samples were collected from mice on day 28 from the start of the powder diet administration, and plasma glucose level and plasma insulin level were measured. […] The results are shown in [Table 9] to [Table 12]. The values in the tables show mean (n=8)±standard deviation.

[4] = pioglitazone 0.01(w/w)%, vildagliptin 0.03(w/w)%

| SMILES | pancreatic insulin content [1, 4] [μU/mg tissue] | plasma insulin level [2] [μU/mL] | plasma glucose level [2] [mg/dL] | plasma insulin/plasma glucose value [2] [μU/mg] | pancreatic insulin content [2] [μU/mg tissue] | plasma insulin level ([1]; day 35, pioglitazone 0.01(w/w)%, vildagliptin 0.03(w/w)%) [μU/mL] | plasma glucose level ([1]; day 35, pioglitazone hydrochloride 0.01(w/w)% as pioglitazone, vildagliptin 0.03(w/w)%) [mg/dL] | plasma insulin/plasma glucose value ([1]; day 35, plasma insulin level divided by plasma glucose level) [μU/mg] | plasma insulin level [3] [μU/mL] | plasma glucose level [3] [mg/dL] | plasma insulin/plasma glucose value [3] [μU/mg] | pancreatic insulin content [3] [μU/mg tissue] |
| --- | --- | --- | --- | --- | --- | --- | --- | --- | --- | --- | --- | --- |
| N#C[C@@H]1CCCN1C(=O)CNC12CC3CC(CC(O)(C3)C1)C2 [vildagliptin, (2S)-1-{[(3-hydroxy-1-adamantyl)amino]acetyl}-2-cyano-pyrrolidine] | 559.2 ± 169.2 |  |  |  |  |  |  |  |  |  |  |  |
| Cc1ccc(-c2c(CN)c(CC(C)C)nc(C)c2C(=O)O)cc1 [compound A, 5-(aminomethyl)-6-isobutyl-2-methyl-4-(4-methylphenyl)nicotinic acid] |  | 135.5 ± 115.4 | 502.0 ± 54.3 | 29.0 ± 28.4 | 918.4 ± 328.6 |  |  |  |  |  |  |  |
| CCc1ccc(CCOc2ccc(CC3SC(=O)NC3=O)cc2)nc1 (stereo not drawn) [pioglitazone] | 834.7 ± 275.3 | 289.2 ± 261.8 | 411.0 ± 54.4 | 72.9 ± 64.5 | 2314.2 ± 1285.4 | 200.2 ± 78.0 | 348.5 ± 97.4 | 63.9 ± 35.9 | 739.5 ± 472.8 | 341.0 ± 100.6 | 261.7 ± 217.9 | 1117.2 ± 479.7 |
| N[C@@H](CC(=O)N1CCn2c(nnc2C(F)(F)F)C1)Cc1cc(F)c(F)cc1F [sitagliptin] |  |  |  |  |  |  |  |  | 103.1 ± 47.2 | 492.3 ± 38.3 | 21.6 ± 11.3 | 331.1 ± 79.6 |
